pEC50, pIC50: −log10 of the molar value. Read-outs that look alike come from different tables or passages of the source.
Legend:
PDK1 kinase = molecular target: T1, PDK1 kinase (Homo sapiens, UniProt O15530); test: PDK1 Kinase Alpha Screen Assay; format: biochemical; settings: read-out: PDK1 IC50
T1 sequence (O15530 1-556): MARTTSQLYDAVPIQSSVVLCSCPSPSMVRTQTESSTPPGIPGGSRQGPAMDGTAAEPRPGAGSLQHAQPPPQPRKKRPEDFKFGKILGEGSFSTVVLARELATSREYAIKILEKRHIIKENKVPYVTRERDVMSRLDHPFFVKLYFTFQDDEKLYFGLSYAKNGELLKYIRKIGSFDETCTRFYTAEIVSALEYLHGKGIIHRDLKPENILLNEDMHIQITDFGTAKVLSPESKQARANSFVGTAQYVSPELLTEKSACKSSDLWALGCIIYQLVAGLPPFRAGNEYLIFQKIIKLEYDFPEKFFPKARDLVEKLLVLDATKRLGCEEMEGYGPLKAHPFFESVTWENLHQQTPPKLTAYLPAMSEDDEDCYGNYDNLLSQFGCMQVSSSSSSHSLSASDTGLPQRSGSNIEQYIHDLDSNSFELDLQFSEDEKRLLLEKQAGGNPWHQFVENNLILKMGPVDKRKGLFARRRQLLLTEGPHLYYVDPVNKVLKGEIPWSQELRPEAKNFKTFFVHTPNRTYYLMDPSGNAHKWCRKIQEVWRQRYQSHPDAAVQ
Summary of the method: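 PDK1 phosphorylated 50 nM biotinylated PDK1-4 peptide with 10 uM ATP in Tris pH 7.5, 10 mM MgCl2, 2 mM DTT, 2.5% DMSO for 3-18 hours. After EDTA stop, phosphopeptide was detected by AlphaScreen using phospho-(Ser/Thr) PKA substrate antibody with protein A/streptavidin beads, read after overnight incubation.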

A2780 cells = test: Cell Proliferation Assay (Cell Titer Glo), A2780; format: cell-based; settings: Homo sapiens, read-out: CPEC50 A2780
Summary of the method: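 Cells seeded at 1000/well, allowed to adhere 3-5 h, then exposed to DMSO-dissolved compounds for 3 days at 37° C., 5% CO2. Medium replaced before Cell Titer Glo addition; luminescence read after 10 min.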

[1] = 72 h, A2780 cells, 3 days incubation
[2] = cell proliferation, A2780 cells
[3] = Cell Proliferation Assay, A2780

Structure (SMILES) | pIC50 (PDK1 kinase) | pEC50 (A2780 cells; [1]) | pIC50 (PDK1 kinase; PDK1 Kinase Alpha Screen Assay) | pEC50 (A2780 cells; [2]) | other results
NS(=O)(=O)c1ccc(Nc2ncc3cccc(C(=O)N[C@H]4CN5CCC4CC5)c3n2)cc1 [Compound 144, 2-(4-Sulfamoyl-phenylamino)-quinazoline-8-carboxylic acid (R)-3-quinuclidinylamide] | 5.00 to 5.30 | 5.00 to 5.30 |  |  | 
NS(=O)(=O)c1ccc(Nc2ncc3cccc(Nc4cccnc4)c3n2)cc1 [Compound 895, 4-(8-(pyridin-3-ylamino)quinazolin-2-ylamino)benzenesulfonamide] |  |  | > 5.30 | 5.00 to 5.30 | 
NS(=O)(=O)c1ccc(Nc2ncc3cccc(-c4ccccc4)c3n2)cc1 [Compound 110, 4-(8-Phenyl-quinazolin-2-ylamino)-benzenesulfonamide] | > 5.30 | > 5.30 |  |  | 
COc1ccc(Oc2cccc3cnc(Nc4ccc(S(N)(=O)=O)cc4)nc23)cc1 [Compound 407, 4-(8-(4-methoxyphenoxy)quinazolin-2-ylamino)benzenesulfonamide] |  |  | > 5.30 |  | pEC50 (A2780 cells; [3]): > 5.30
N#Cc1ccc(Oc2cccc3cnc(Nc4ccc(S(N)(=O)=O)cc4)nc23)cc1 [Compound 409, 4-(8-(4-cyanophenoxy)quinazolin-2-ylamino)benzenesulfonamide] |  |  | > 5.30 |  | pEC50 (A2780 cells; [3]): 5.00 to 5.30
NS(=O)(=O)c1ccc(Nc2ncc3cccc(CNCCc4cnc[nH]4)c3n2)cc1 [Compound 918, 4-(8-((2-(1H-imidazol-5-yl)ethylamino)methyl)quinazolin-2-ylamino)benzenesulfonamide] | > 5.30 |  |  |  | pEC50 (A2780 cells; A2780 cells): 5.00 to 5.30
Cc1noc(C)c1-c1ccc2cnc(Nc3ccc(S(N)(=O)=O)cc3)nc2c1 [Compound 867, 4-(7-(3,5-dimethylisoxazol-4-yl)quinazolin-2-ylamino)benzenesulfonamide] |  |  | > 5.30 | > 5.30 | 
NC(=O)c1ccc(-c2ccc3cnc(Nc4ccc(S(N)(=O)=O)cc4)nc3c2)cn1 [Compound 131, 5-[2-(4-Sulfamoyl-phenylamino)-quinazolin-7-yl]-pyridine-2-carboxylic acid amide] | > 5.30 | 5.00 to 5.30 |  |  | 
NS(=O)(=O)c1ccc(Nc2ncc3cccc(-c4ccncc4)c3n2)cc1 [Compound 99, 4-(8-Pyridin-4-yl-quinazolin-2-ylamino)-benzenesulfonamide] | > 5.30 | 5.00 to 5.30 |  |  | 
NS(=O)(=O)c1ccc(Nc2ncc3cccc(C(=O)NC4CCCNC4)c3n2)cc1 (stereo not drawn) [Compound 140, 2-(4-Sulfamoyl-phenylamino)-quinazoline-8-carboxylic acid piperidin-3-ylamide] | > 5.30 | 5.00 to 5.30 |  |  | 
NS(=O)(=O)c1ccc(Nc2ncc3cccc(O[C@H]4CCNC4)c3n2)cc1 [Compound 32, 4-[8-((S)-Pyrrolidin-3-yloxy)-quinazolin-2-ylamino]-benzenesulfonamide] | > 5.30 | > 5.30 |  |  | 
NS(=O)(=O)c1ccc(Nc2ncc3cccc(CNCC4CCCO4)c3n2)cc1 (stereo not drawn) [Compound 922, 4-(8-(((tetrahydrofuran-2-yl)methylamino)methyl)quinazolin-2-ylamino)benzenesulfonamide] | > 5.30 |  |  |  | pEC50 (A2780 cells; A2780 cells): > 5.30
NS(=O)(=O)c1ccc(Nc2ncc3ccc(-c4ccnc(N5CCOCC5)c4)cc3n2)cc1 [Compound 852, 4-(7-(2-morpholinopyridin-4-yl)quinazolin-2-ylamino)benzenesulfonamide] |  |  | > 5.30 | > 5.30 | 
O=S(=O)(c1ccc(Nc2ncc3ccc(-c4cn[nH]c4)cc3n2)cc1)N1CCOCC1 [Compound 868, N-(4-(morpholinosulfonyl)phenyl)-7-(1H-pyrazol-4-yl)quinazolin-2-amine] |  |  | > 5.30 | > 5.30 | 
CN1CCC(c2c(O)ccc3cnc(Nc4ccc(S(N)(=O)=O)cc4)nc23)CC1 [Compound 870, 4-(7-hydroxy-8-(1-methylpiperidin-4-yl)quinazolin-2-ylamino)benzenesulfonamide] |  |  | > 5.30 | > 5.30 | 
NS(=O)(=O)c1ccc(Nc2ncc3ccc(-c4ncco4)c(OC4CCNCC4)c3n2)cc1 [Compound 861, 4-(7-(oxazol-2-yl)-8-(piperidin-4-yloxy)quinazolin-2-ylamino)benzenesulfonamide] |  |  | > 5.30 | > 5.30 | 
NS(=O)(=O)c1ccc(Nc2ncc3ccc(-c4ccnc(NCCN5CCCC5)c4)cc3n2)cc1 [Compound 850, 4-(7-(2-(2-(pyrrolidin-1-yl)ethylamino)pyridin-4-yl)quinazolin-2-ylamino)benzenesulfonamide] |  |  | > 5.30 | 5.00 to 5.30 | 
NS(=O)(=O)c1ccc(Nc2ncc3cccc(-c4ccnc(F)c4)c3n2)cc1 [Compound 97, 4-[8-(2-Fluoro-pyridin-4-yl)-quinazolin-2-ylamino]-benzenesulfonamide] | > 5.30 | > 5.30 |  |  | 
Nc1ncc(-c2ccc3cnc(Nc4ccc(S(N)(=O)=O)cc4)nc3c2OC2CCNCC2)cn1 [Compound 22, 4-[7-(2-Amino-pyrimidin-5-yl)-8-(piperidin-4-yloxy)-quinazolin-2-ylamino]-benzenesulfonamide] | > 5.30 | 5.00 to 5.30 |  |  | 
Nc1cc(-c2cccc3cnc(Nc4ccc(S(N)(=O)=O)cc4)nc23)ccn1 [Compound 109, 4-[8-(2-Amino-pyridin-4-yl)-quinazolin-2-ylamino]-benzenesulfonamide] | > 5.30 | 5.00 to 5.30 |  |  | 
COCCN(C)Cc1cccc2cnc(Nc3ccc(S(N)(=O)=O)cc3)nc12 [Compound 392, 4-(8-(((2-methoxyethyl)(methyl)amino)methyl)quinazolin-2-ylamino)benzenesulfonamide] |  |  | > 5.30 |  | pEC50 (A2780 cells; [3]): > 5.30
NS(=O)(=O)c1ccc(Nc2ncc3ccc(-c4cn[nH]c4)cc3n2)cc1 [Compound 132, 4-[7-(1H-Pyrazol-4-yl)-quinazolin-2-ylamino]-benzenesulfonamide] | > 5.30 | > 5.30 |  |  | 
NS(=O)(=O)c1ccc(Nc2ncc3ccc(-c4ccc5c(c4)CCNC5=O)c(OC4CCNCC4)c3n2)cc1 [Compound 875, 4-(7-(1-oxo-1,2,3,4-tetrahydroisoquinolin-6-yl)-8-(piperidin-4-yloxy)quinazolin-2-ylamino)benzenesulfonamide] |  |  | > 5.30 | 5.00 to 5.30 | 
NC(=O)c1ccc(-c2ccc3cnc(Nc4ccc(S(N)(=O)=O)cc4)nc3c2OC2CCNCC2)cc1 [Compound 19, 4-[8-(Piperidin-4-yl-oxy)-2-(4-sulfamoyl-phenylamino)-quinazolin-7-yl]-benzamide] | > 5.30 | 5.00 to 5.30 |  |  | 
N#Cc1ccc2cnc(Nc3ccc(S(N)(=O)=O)cc3)nc2c1OC1CCNCC1 [Compound 864, 4-(7-cyano-8-(piperidin-4-yloxy)quinazolin-2-ylamino)benzenesulfonamide] |  |  | > 5.30 | > 5.30 | 
NS(=O)(=O)c1ccc(Nc2ncc3ccc(-c4ccc(N5CCCC5)nc4)cc3n2)cc1 [Compound 880, 4-(7-(6-(pyrrolidin-1-yl)pyridin-3-yl)quinazolin-2-ylamino)benzenesulfonamide] |  |  | > 5.30 | 5.00 to 5.30 | 
NS(=O)(=O)c1ccc(Nc2ncc3cccc(CNCc4cccnc4)c3n2)cc1 [Compound 917, 4-(8-((pyridin-3-ylmethylamino)methyl)quinazolin-2-ylamino)benzenesulfonamide] | > 5.30 |  |  |  | pEC50 (A2780 cells; A2780 cells): > 5.30
